According to patent publication US5232917A, “Methods, compositions, and compounds for allosteric modulation of the GABA receptor by members of the androstane and pregnane series” (priority 1991, dated 1993):
Where two headings read alike, the source gives them in different places.

What was measured:
progesterone receptor = target: T1, progesterone receptor (Bos taurus, UniProt F1N712); assay: Inhibition of 3H-progesterone binding to bovine uteral progesterone receptors
T1 construct: from tissue; host or cells: bovine uterus cytosol
T1 sequence (F1N712 1-914): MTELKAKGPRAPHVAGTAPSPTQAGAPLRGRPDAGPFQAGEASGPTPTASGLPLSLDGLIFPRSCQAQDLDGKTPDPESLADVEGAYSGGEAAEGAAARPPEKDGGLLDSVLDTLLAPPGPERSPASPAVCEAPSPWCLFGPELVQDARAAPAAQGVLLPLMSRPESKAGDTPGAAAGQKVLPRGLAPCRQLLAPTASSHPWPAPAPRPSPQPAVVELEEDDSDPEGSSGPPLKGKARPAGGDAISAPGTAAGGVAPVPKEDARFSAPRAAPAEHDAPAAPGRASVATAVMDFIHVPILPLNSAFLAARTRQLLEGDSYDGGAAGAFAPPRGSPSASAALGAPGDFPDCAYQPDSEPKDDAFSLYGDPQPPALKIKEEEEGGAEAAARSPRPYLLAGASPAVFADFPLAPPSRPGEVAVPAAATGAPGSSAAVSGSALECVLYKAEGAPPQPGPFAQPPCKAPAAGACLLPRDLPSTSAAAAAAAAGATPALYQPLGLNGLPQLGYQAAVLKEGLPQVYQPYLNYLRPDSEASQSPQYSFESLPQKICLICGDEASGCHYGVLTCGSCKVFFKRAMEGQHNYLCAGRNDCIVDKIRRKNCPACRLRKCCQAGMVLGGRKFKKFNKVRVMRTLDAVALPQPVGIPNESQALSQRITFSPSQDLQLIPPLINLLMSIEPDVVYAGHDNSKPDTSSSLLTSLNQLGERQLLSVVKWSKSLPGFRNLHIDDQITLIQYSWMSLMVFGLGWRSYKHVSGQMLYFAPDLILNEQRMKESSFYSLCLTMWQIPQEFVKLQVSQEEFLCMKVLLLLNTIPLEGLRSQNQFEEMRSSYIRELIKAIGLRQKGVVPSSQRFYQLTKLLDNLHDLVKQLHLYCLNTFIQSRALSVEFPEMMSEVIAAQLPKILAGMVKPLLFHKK
Experimental: (§1) The hormonal activity of drugs described herein was further studied through testing their potential estrogenic, progestinic, mineralocorticoid and glucocorticoid activities. These activities were analyzed by monitoring the ability of the drugs to inhibit binding of the steroid hormones to their respective hormone receptors.
For the data presented in Table 9, bovine uteri cytosol was isolated as they were for Table 7 and used for following binding to progesterone receptors by following the inhibition of ^3 H-progesterone, the natural ligand.

[1] = target: GABA receptor-chloride ionophore complex (GR complex); assay: [35S]TBPS binding modulation assay; settings: for Max. Inhib., maximal % of specifically bound [35S]-TBPS displaced: saturating concentrations of test compound
estrogen receptor = target: T2, estrogen receptor (Bos taurus, UniProt P49884); assay: Inhibition of 3H-estradiol binding to bovine uteral estrogen receptors; settings: read-out: % of inhibition of 3H-estradiol binding, B, competitor 10^-6 M; 0.25 nM 3H-estradiol
T2 construct: from tissue; host or cells: bovine uterus cytosol
T2 sequence (P49884 1-596): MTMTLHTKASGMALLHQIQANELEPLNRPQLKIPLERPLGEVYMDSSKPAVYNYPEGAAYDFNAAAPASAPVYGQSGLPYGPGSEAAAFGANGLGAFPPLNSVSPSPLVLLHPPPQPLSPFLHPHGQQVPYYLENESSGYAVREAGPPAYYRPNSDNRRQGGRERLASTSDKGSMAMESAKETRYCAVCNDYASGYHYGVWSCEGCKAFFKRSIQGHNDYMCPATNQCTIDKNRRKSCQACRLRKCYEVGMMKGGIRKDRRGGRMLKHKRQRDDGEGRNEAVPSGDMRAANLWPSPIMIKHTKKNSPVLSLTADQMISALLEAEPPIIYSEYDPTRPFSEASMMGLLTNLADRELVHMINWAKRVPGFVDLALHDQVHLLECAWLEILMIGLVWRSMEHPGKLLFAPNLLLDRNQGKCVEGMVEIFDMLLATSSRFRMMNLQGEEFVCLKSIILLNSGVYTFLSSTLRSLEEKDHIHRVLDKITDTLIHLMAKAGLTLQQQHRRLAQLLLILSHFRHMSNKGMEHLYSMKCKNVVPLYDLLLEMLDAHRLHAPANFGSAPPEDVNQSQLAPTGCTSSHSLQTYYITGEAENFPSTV
Experimental: as §1

[2] = tested on: GABA receptor complex (36Cl uptake, cerebral cortical synaptoneurosomes); assay: GABA-stimulated 36Cl uptake in rat cerebral cortical synaptoneurosomes; assay type: biochemical, rat (male Sprague-Dawley)
Experimental: In addition, the ability of the BZ clonazepam to modulate ^36 Cl uptake in the presence or absence of 5α-pregnandiol was evaluated.
The homogenate was diluted to a final volume of 40 mL with buffer and filtered through three layers of Nylon mesh (160 μm).
Aliquots of membrane preparation (200 μL) were preincubated at 30° C. for 10 min. The interaction was initiated by the simultaneous addition of drugs/steroids and 0.2 mL ^36 Cl (New England Nuclear Boston, Mass., 0.55 mCi/mmol, 0.8 μCi/ml) resulting in a total incubation volume of 0.4 mL. Steroids and test drugs were solubilized in dimethylsufoxide (DMSO) and added to the reaction mixture in 2 μL aliquots. An equal volume of vehicle was always included in the control reaction mixture. The mixture was gently mixed and ^36 Cl uptake terminated after 5 sec by the of 5 mL of ice cold buffer containing 100 μM picrotoxin (Sigma Chem Co.) followed immediately by rapid filtration through glass fiber filters (Whatman GF/C) under vacuum. The filters were washed twice with 5 mL of ice-cold buffer and the filter-bound radioactivity quantitated by liquid scintillation spectrophotometry. Specific uptake was calculated by subtracting the amount of ^36 Cl bound to the filters in the absence of synaptoneurosomes from that observed in their presence. Percent enhancement represents percent increase in uptake over that of basal ^36 Cl uptake. Statistical comparisons utilized the analysis of variance (ANOVA).

[3] = tested on: metrazol induced convulsions; assay: Inhibition of metrazol induced convulsions (Table 2); assay type: in vivo, mice; settings: Mus musculus
Experimental: Experiments were also performed to determine the physiological relevance of these interactions by measuring the ability of the compound of and used in the invention to modulate TBPS-induced convulsions in Swiss-Webster mice. […] The time to onset of myoclonus (presence of forelimb clonic activity) induced by TBPS was determined by observing each mouse for a period of 45 minutes. Significant differences between the time to onset in control mice vs. steroid-treated mice were determined by Student's t-test. […] The number of animals with tonic and/or clonic convulsions was recorded. In the maximal electroshock test, 50 mA of current at 60 Hz was delivered through corneal electrodes for 200 msec to induce tonic seizure. […] The ED50 (the dose at which the half-maximal effect occurs) was determined for each screen.
Adult male CFI mice (20-30g) were used in these studies. […] Percent protection against metrazol-induced seizures was plotted against time after administration of the compound. […] Ten to twelve mice were used per dose of test drug. […] The number of animals with tonic and/or clonic convulsions was recorded. The ability of the steroid to abolish the tonic component was defined as the endpoint. Sedative potential was determined by a rotorod test where the number of mice staying on a rotating (6 rpm) rod for ≥1 min. in each of three trials was determined.

[4] = tested on: number of light/dark transitions (anxiety); assay: Light/dark transition test; assay type: in vivo, mice (male N.I.H. Swiss-Webster)
From the text: The light/dark transition test (Crawley and Goodwin, 1980) is based on the observation that rodents naturally tend to explore novel environments, but open, brightly lit arenas are aversive to the rodents and inhibit exploratory behavior (Christmas and Maxwell, 1970; File, 1980). […] Similar to the light/dark transition test, the open-field test measures the antagonism between the tendency to explore a novel environment and the tendency to remain still in an aversive environment (brightly lit arena). […] The open-field test provides a simple, non-punished assessment of the potential anxiolytic properties of novel compounds. Finally, 3α-OH-DHP was tested for anxiolytic properties in a Vogel conflict paradigm. The ability of BZs to attenuate the suppression of behavior by punishment in conflict paradigms is well established (Gellar et al., 1962; Vogel et al., 1971).
Male N.I.H. Swiss-Webster mice (Harlan) weighing 15-20 g were used in all experiments. The mice were housed 4/cage in polyethylene cages with sawdust bedding. The colony room was environmentally controlled (22° C.) with a 12 hr. light/dark cycle (0600-1800 hrs.). The mice had free access to food and water. The experiments were run from 0700-1500 hrs. and groups were counterbalanced for time of day effects.
The method used was previously described by Crawley and Goodwin (1980). The apparatus included a large box (26×33×24 cm) connected to a small box (15×22×14 cm) through an opening (5×6 cm). The large box was brightly lit with a standard 100W light bulb, while the small box was kept dark. Following pretreatment with a test drug, mice were placed in the center of the large box and the number of transitions between the large and small boxes was counted for 10 min. […] During the antagonist studies, CGS-8216 was administered 30 min. prior to the test drug.
2-Hydroxypropyl β-cyclodextrin Diazepam and chlordiazepoxide are available from Sigma, Co. (St. Louis, Mo.). CGS-8216 was obtained from Ciba-Geigy (Summit, N.J.). All drugs were dissolved in 20% β-cyclodextrin in water and sonicated overnight. All drugs were administered intraperitoneally in a volume of 100 μL/20 g. CGS-8216 was administered subcutaneously in a volume of 100 μL/20 g.
The vehicle control data were analyzed across test days using an 1-way analysis of variance (ANOVA). […] The dose-response curves were then analyzed using an 1-way ANOVA, followed by Dunnett's t-test for individual comparisons between doses and control. The open-field and habituated locomotor data were analyzed using ANOVA followed by Dunnett's t-test. […] All data is expressed as the mean±S.E.M.

[5] = tested on: number of light/dark transitions (anxiety); settings: Crawley et al., cited from earlier work
[6] = tested on: GABA receptor-chloride ionophore complex (GR complex); assay: Dissociation kinetics of [35S]TBPS in rat cerebral cortical membranes; assay type: binding; settings: alphaxalone 300 nM, 3α-OH-DHP 20 nM
[7] = read-out: % of inhibition of 3H-progesterone binding, A, competitor 10^-5 M, 0.15 nM 3H-progesterone
[8] = read-out: % of inhibition of 3H-progesterone binding, B, competitor 10^-5 M, 0.25 nM 3H-progesterone
[9] = read-out: % of inhibition of 3H-progesterone binding, B, competitor 10^-6 M, 0.25 nM 3H-progesterone
[10] = read-out: IC50, inhibition of [35S]-TBPS binding, +5 μM GABA, in the presence of 5 μM GABA
[11] = Na pentobarbital 30 μM, 2 nM [35S]TBPS

C[C@H](O)[C@H]1CC[C@H]2[C@@H]3CC[C@H]4C[C@H](O)CC[C@]4(C)[C@H]3CC[C@]12C [5α-pregnanediol, 5α-pregnan-3α,20α-diol]
inhibition at 10 µM (progesterone receptor; [7]): 2%
inhibition at 10 µM (progesterone receptor; [8]): 3%
inhibition at 1 µM (progesterone receptor; [9]): 1%
IC50 [1, 10]: 82 nM
IC50 ([1]; read-out: IC50, inhibition of [35S]-TBPS binding, No GABA, washed synaptoneurosomes, no GABA added): 359 nM
Max. Inhib., maximal % of specifically bound [35S]-TBPS displaced [1]: 52%
inhibition at 1 µM (estrogen receptor): 0%
% enhancement of basal 36Cl uptake ([2]; 5α-pregnanediol (3 μM), no GABA): 2 ± 1%
maximal enhancement of GABA-stimulated 36Cl uptake above GABA alone ([2]; 5α-pregnanediol at 3 μM, GABA 25 μM, FIG. 4): approximately 30%
concentration at which potentiation of GABA-stimulated 36Cl uptake reaches a plateau ([2]; FIG. 4): 3 µM
% enhancement of basal 36Cl uptake ([2]; GABA (25 μM) + 5α-pregnanediol (3 μM)): 162±4%
% enhancement of basal 36Cl uptake ([2]; GABA (25 μM) + 5α-pregnanediol (3 μM) + clonazepam (1 μM)): 192 ± 16%
3α-OH-DHP potentiation of GABA-stimulated 36Cl uptake as antagonized by 5α-pregnanediol ([2]; from 60% to this value above GABA (25 μM) alone, 3α-OH-DHP 500 nM + 5α-pregnanediol): 31%
effect on basal 36Cl uptake ([2]; steroid alone, no GABA): no effect
ED50 ([3]; iv, read-out: Anti-Metrazol ED50 (iv)): 40 mg/kg

C[C@]12CC[C@@H](O)C[C@H]1CC[C@@H]1[C@@H]2CC[C@]2(C)[C@@H](C(=O)CO)CC[C@@H]12 [5β-PREGNAN-3α,21-DIOL-20-ONE]
inhibition at 10 µM (progesterone receptor; [7]): 19%
inhibition at 1 µM (progesterone receptor; read-out: % of inhibition of 3H-progesterone binding, A, competitor 10^-6 M, 0.15 nM 3H-progesterone): 6%
inhibition at 10 µM (progesterone receptor; [8]): 10%
inhibition at 1 µM (progesterone receptor; [9]): 2%
IC50 [1, 10]: 100 nM
Max. Inhib., maximal % of specifically bound [35S]-TBPS displaced [1]: 100%
inhibition at 1 µM (estrogen receptor): 4%
ED50 ([3]; inhibition of metrazol induced convulsions, read-out: Anti-Metrazol ED50): 10 mg/kg

O=C1C2C=Nc3ccccc3C2=NN1c1ccccc1 (centres unmarked) [CGS-8216, reference compound]
block of anxiolytic effect of 3α-OH-DHP by CGS-8216 ([4]; CGS-8216 10 mg/kg, 3α-OH-DHP 10 mg/kg, FIG. 13A): unable to block
block of anxiolytic effect of diazepam by CGS-8216 ([4]; diazepam 1.0 mg/kg, FIG. 13B): able to block the anxiolytic effect of diazepam
intrinsic activity in light/dark transition test ([4]; p>0.4 vs vehicle): did not demonstrate any intrinsic activity
block of diazepam's anxiolytic effects (literature) [5]; 1984: block diazepam's anxiolytic effects

CCCC(C)C1(CC)C(=O)NC(=O)NC1=O (centres unmarked) [pentobarbital]
effect on number of light/dark transitions (literature) ([5]; Blumstein and Crawley, 1983): increase the number of transitions
Total percentage of specific sites, rapid (R) ([6]; Na pentobarbital 30 μM): 48 ± 6%
Total percentage of specific sites, slow (S) ([6]; Na pentobarbital 30 μM): 61 ± 6%
K-1, rapidly dissociating component (R) [6, 11]: 0.158 ± 0.013 min⁻¹
K-1, slowly dissociating component (S) [6, 11]: 0.0186 ± 0.0015 min⁻¹
T1/2, rapidly dissociating component (R) [6, 11]: 4.4 ± 0.3 min
T1/2, slowly dissociating component (S) [6, 11]: 38 ± 3 min
biphasic dissociation mechanism of [35S]TBPS ([6]; pentobarbital 30 μM, FIGS. 2A, 2B): induces a biphasic dissociation mechanism
